Values quoted from earlier work, collected in US12397068B2, “Structural design of a cranial nerve degeneration contrast agent precursors” (INSTITUTE OF NUCLEAR ENERGY RESEARCH, ATOMIC ENERGY …, priority 2022, dated 2025).

What was measured:
[1] = system: α-synuclein relative to Aβ and Tau proteins; settings: in vitro; in words only; background statement
[2] = in words only; background statement
α-synuclein fibrils = α-synuclein fibrils (Homo sapiens, UniProt P37840); settings: in words only; background statement

in vitro stability [2]	affinity for α-synuclein (α-synuclein fibrils)	SMILES	specificity for α-synuclein relative to β-amyloid (Aβ) and Tau [1]
low in vitro stability	–	O=[N+]([O-])c1ccc2c(c1)Sc1cc(OC/C=C/[125I])ccc1N2 [SIL23]	reasonable degree in vitro specificity
low in vitro stability	moderate affinity	CC[n+]1ccc(/C=C/C=C/c2ccc(N(C)C)cc2)c2ccccc21.[O-][Cl+3]([O-])([O-])[O-] [LDS 798]	reasonable degree in vitro specificity
low in vitro stability	–	O=[N+]([O-])c1ccc2c(c1)Sc1cc(OCCF)ccc1N2 [SIL26]	reasonable degree in vitro specificity
low in vitro stability	–	COc1ccc2c(c1)Sc1cc([N+](=O)[O-])ccc1N2 [SIL5]	reasonable degree in vitro specificity
–	–	O=C1Nc2ccccc2C1=Cc1ccccc1	low specificity

SMILES	in vitro stability [2]	affinity for α-synuclein (α-synuclein fibrils)	specificity for α-synuclein relative to β-amyloid (Aβ) and Tau [1]
CN(C)c1ccc(/C=C/C=C/C2=[N+](C)C3=C(CCCC3)C2(C)C)cc1 [LDS 730]	low in vitro stability	–	reasonable degree in vitro specificity
